Test results taken from US12077495B2 (priority 2018, dated 2024).

How the values were obtained:
[1] = molecular target: T1, CAMK2A pThr286 autophosphorylation (Mus musculus, UniProt P11798); assay: pThr286 autophosphorylation in dissected mouse cortex after photothrombosis (Western blot); assay type: in vivo, mice; conditions: 175 mg/kg i.p.; cortex tissue; pThr286 normalized to total CAMK2A
T1 construct: cortical tissue isolated from mice subjected to photothrombotic injury; from tissue; host or cells: mouse cortex (infarct core), C57BL/6J, after in vivo dosing
T1 sequence (P11798 whole entry): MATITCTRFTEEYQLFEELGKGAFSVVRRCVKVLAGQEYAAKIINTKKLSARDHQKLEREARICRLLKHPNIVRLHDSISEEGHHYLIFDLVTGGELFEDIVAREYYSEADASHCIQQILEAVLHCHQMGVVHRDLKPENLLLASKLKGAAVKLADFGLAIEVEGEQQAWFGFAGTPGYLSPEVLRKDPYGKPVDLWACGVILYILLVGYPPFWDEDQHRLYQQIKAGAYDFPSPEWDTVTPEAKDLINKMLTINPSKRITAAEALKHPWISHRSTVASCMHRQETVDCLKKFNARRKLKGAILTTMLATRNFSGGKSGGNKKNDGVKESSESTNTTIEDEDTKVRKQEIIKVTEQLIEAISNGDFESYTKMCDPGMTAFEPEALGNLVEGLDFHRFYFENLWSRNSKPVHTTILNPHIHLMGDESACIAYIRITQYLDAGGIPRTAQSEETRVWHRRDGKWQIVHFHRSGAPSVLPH
Method: Along with the standard protocol for photothrombotic focal ischemia, mice were treated with either saline or 175 mg/kg A (i.p.) 30 min after the injury. Three hours after the injury, mice were sacrificed, brains were dissected out and immediately submerged in ice-cold PBS supplemented with 1% phosphatase and protease inhibitors (Phosphatase inhibitor cocktail 3 #P0044 (Sigma), Phosphatase inhibitor cocktail 2 #P5726 (Sigma) and complete EDTA protease inhibitors (Roche) for 5 min. Cortex tissue from the infarct core region (i.e. 1.5 mm right of bregma including the primary motor cortex with a diameter of 2 mm) was dissected and snap-frozen on dry ice. Tissue homogenization was performed using 1×RIPA buffer supplemented with phosphatase and protease inhibitors and a Bullet Blender. Autophosphorylation was assessed by Western blot analysis, comparing the total level of CAMK2A (quantified using anti-CAMK2A, #NB100-1983, Novus Biologicals) to the level of phosphorylated CAMK2A (pThr286: #12716S, Cell Signalling Technology; goat anti-rabbit HRP: #PI-1000 X0126, Vector). […]
To this end, sham mice or mice were treated with either saline or 175 mg/kg A (i.p.) 3 hrs after the injury. […] Autophosphorylation was assessed by Western blot analysis and levels of pThr286 CAMK2A normalized to total CAMK2A to detect changes in autophosphorylation.

[2] = tested on: photothrombotic focal ischemia in C57BL/6J mice; assay: Photothrombotic model, behavioural assessment (grid-walking and cylinder tasks); assay type: in vivo; conditions: for cylinder task, improvement vs saline / grid-walking task, reduction of asymmetry: 7 days after ischemia
Method: All procedures were performed in accordance with the guidelines on the care and use of laboratory animals set out by the University of Otago, Animal Research Committee and the Guide for Care and Use of Laboratory Animals (NIH Publication No. 85-23, 1996). All in vivo studies were approved by the University of Otago Animal Ethics Committee and are reported according to the ARRIVE (Animal Research: Reporting In Vivo Experiments) guidelines. The photochemical cortical lesion model resembles situations of acute brain injury related clinically to stroke and traumatic brain injury (TBI). Focal ischemia was induced by photothrombosis in male C57BL/6J mice (8-10 weeks) weighing ˜23-30 g as previously described (Clarkson et al., 2010). Under anesthesia with isoflurane (2% to 2.5% in O2) mice were placed in a stereotactic apparatus, the skull exposed through a midline incision, cleared of connective tissue and dried. A cold light source (KL1500 LCD, Zeiss, Auckland, New Zealand) attached to a 40× objective providing a 2-mm diameter illumination was positioned 1.5 mm lateral from bregma. Then, 0.2 ml of Rose Bengal (Sigma-Aldrich, Auckland, New Zealand; 10 mg/ml in normal saline) was administered i.p. After 5 min, the brain was illuminated through the exposed intact skull for 15 min, while keeping body temperature at 37.0±0.3° C. degrees using a heating pad (Harvard apparatus, Holliston, MA, USA). The skin was glued and animals left in a cage placed on a heating pad during the wake-up phase. Mice were housed under a 12-hr light/dark cycle with ad libitum access to food and water. Further, the mice were monitored and weighed on a daily basis.
For in vivo studies, all compounds were dissolved in a mixture of sterile saline and H2O to obtain isotonicity (0.9%) and administered as 10 mg/ml and 10 μl of solution per gram mouse body weight. The injection of compound (i.p.) was performed 30 min, 3, 6 or 12 hrs after induction of the photothrombotic stroke. The vehicle groups received a corresponding volume of saline (0.9%) at the same time points (30 min, 3, 6 or 12 hrs).
Forelimb motor performance was determined using the cylinder and grid-walking tasks as previously described (Clarkson et al., 2010). All animals were tested both in a pre- and post-testing session, 1 week before and 3 days or 7 days after the ischemic insult, respectively. Observers who scored the behaviour were blinded to the treatment groups.

[3] = tested on: proton-coupled transporters (MCTs) endogenously present in tsA201 cells; assay: MCT-mediated uptake in tsA201 cells (BCECF pH-sensitive dye); assay type: cell-based; conditions: 2 min, read-out: EC50, concentration-dependent decrease in intracellular pH
Method: Uptake was measured using the cell-permeable pH-sensitive dye 2′,7′-Bis(2-carboxyethyl)-5(6)-carboxyfluorescein acetoxymethyl ester (BCECF-AM) (Molecular Probes), utilizing the endogenous expression of MCTs in tsA201 cells. The day before the assay, cells were plated (50,000 cells/well) in black poly-D-lysin-coated 96-well plates with clear bottom (VWR, Radnor, PA, USA). […] Cells were then washed twice with 100 μl buffer and the cell plate assayed at 37° C. in a FlexStation 3 reader (Molecular Devices).
Cells (tsA201; related to HEK293-T) known to express MCTs were grown in 96-well plates and exposed to compounds and pH-decreased measured for 2 min.

GABAB receptor = molecular target: T2, GABAB receptor (Rattus norvegicus, UniProt Q9Z0U4); assay: 3H-GABA binding assay for GABAB, rat cortex membranes; conditions: up to concentrations of 1 mM
T2 construct: using crude synaptic membranes prepared from rat cortex; from tissue; host or cells: rat cortex, crude synaptic membranes
T2 sequence (Q9Z0U4 17-960 limits assumed): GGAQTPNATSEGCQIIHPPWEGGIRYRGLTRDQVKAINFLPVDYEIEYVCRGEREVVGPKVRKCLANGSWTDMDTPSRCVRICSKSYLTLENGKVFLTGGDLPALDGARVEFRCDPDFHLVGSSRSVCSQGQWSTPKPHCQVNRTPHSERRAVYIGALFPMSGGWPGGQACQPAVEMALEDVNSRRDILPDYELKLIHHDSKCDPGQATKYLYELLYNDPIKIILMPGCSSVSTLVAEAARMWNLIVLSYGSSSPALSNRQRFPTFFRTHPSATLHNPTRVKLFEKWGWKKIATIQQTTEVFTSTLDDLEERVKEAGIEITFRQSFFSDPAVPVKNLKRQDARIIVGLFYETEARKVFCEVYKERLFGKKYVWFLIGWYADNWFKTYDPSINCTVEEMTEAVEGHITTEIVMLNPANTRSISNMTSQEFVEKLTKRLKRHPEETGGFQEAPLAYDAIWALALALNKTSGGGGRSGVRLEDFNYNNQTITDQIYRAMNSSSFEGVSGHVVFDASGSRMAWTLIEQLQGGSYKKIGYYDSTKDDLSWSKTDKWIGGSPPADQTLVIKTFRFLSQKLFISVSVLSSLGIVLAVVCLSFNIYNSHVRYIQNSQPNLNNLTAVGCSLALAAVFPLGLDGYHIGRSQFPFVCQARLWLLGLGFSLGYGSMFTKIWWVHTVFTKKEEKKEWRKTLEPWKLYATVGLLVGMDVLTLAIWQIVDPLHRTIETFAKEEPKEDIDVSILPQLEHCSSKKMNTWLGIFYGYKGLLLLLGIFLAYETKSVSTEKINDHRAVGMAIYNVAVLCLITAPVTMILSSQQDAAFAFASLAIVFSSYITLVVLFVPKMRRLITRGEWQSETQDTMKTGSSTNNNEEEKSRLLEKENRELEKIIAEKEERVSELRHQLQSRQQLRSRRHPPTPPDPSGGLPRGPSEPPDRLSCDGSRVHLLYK
T2 sequence (O88871 41-940 partner): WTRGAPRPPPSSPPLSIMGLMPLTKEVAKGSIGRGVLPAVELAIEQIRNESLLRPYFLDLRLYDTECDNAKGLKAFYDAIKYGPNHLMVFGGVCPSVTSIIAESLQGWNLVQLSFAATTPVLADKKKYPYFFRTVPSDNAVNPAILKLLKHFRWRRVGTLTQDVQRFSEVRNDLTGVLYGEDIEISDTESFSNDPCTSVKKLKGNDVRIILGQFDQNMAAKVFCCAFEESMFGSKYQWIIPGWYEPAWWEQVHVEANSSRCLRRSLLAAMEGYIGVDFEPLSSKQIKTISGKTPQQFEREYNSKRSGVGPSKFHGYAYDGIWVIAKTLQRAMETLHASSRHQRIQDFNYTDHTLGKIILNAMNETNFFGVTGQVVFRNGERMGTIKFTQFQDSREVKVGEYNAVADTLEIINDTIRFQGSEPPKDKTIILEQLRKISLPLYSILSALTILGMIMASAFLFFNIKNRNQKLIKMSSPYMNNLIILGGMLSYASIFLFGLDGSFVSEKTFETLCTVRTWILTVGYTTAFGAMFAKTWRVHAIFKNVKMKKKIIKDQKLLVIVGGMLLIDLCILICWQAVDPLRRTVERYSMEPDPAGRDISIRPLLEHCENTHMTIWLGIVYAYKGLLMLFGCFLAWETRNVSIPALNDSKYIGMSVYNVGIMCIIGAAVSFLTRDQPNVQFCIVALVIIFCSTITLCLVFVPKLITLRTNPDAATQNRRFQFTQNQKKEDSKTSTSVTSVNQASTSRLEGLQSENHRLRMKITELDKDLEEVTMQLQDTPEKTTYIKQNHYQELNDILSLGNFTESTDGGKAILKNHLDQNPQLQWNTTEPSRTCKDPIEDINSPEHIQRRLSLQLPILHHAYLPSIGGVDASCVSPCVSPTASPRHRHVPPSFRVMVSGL
Method: Following incubation by rapid filtration through GF/C unifilters (PerkinElmer, Boston, MA, USA), using a 96-well Packard cell-harvester (PerkinElmer) and three fast washes with ice-cold binding buffer, microscint scintillation fluid (PerkinElmer) was added to the dried filters, and the amount of filter-bound radioactivity was quantified in a Packard TopCount microplate scintillation counter (PerkinElmer). […] The binding reactions were terminated by rapid filtration through GF/C filters (Whatman), soaked in 0.1% polyethylene imine, using a Brandell 48-well harvester and rapid washing with ice-cold binding buffer. […] Data are presented as % specific binding (of control), and IC50 or Ki values calculated by means of non-linear regression curve-fitting and the Cheng-Prusoff equation, respectively.

MCP-1, IL-6 and IL-1a = assay: Quantification of cytokines in plasma after photothrombotic focal ischemia; assay type: in vivo, mice; conditions: 4 hrs after focal ischemia
Method: Detection of MCP-1 (monocyte chemotactant protein-1), IL-6 (interleukin-6) and IL-1a (interleukin-1a) was performed using a LEGENDplex assay kit according to the manufacturers' instructions (BioPlex, BioLegend, San Diego, CA, USA).
To evaluate the inflammatory response at early time points, blood samples were collected 4 hrs after induction of a focal ischemic event.

[4] = 175 mg/kg 30 min after ischemia, day 3

`O=C(O)C1=CC(O)CC1` (stereo not shown) [Compound A, 3-hydroxycyclopent-1-enecarboxylic acid] was tested, and the “decrease in pThr286 autophosphorylation” value [1] was 73%, the “cylinder task, reduction of asymmetry” value ([2]; 17.5 mg/kg 30 min after ischemia, day 3) was 40% and the “grid-walking task, reduction vs saline” value ([2]; 17.5 mg/kg 30 min after ischemia, day 3, non-significant) was 10%. For the same molecule, the “cylinder task, reduction of asymmetry” value [2, 4] was 42%, the “grid-walking task, improvement vs saline” value [2, 4] was 26% and the “cylinder task, improvement vs saline” value ([2]; 175 mg/kg 3 hr after ischemia) was 16%. The “grid-walking task, reduction of asymmetry” value ([2]; 175 mg/kg 3 hr after ischemia) was 31%, the “cylinder task, improvement vs saline” value ([2]; 175 mg/kg 6 hr after ischemia) was 20% and the “grid-walking task, reduction of asymmetry” value ([2]; 175 mg/kg 6 hr after ischemia) was 22%. For the same molecule, the “cylinder task, improvement vs saline” value ([2]; 175 mg/kg 12 hr after ischemia) was “non-significant”, the “grid-walking task, reduction of asymmetry” value ([2]; 175 mg/kg 12 hr after ischemia) was 21% and the EC50 [3] was 8.2 mM. For the same molecule, the “inhibition of 3H-GABA binding to GABAB receptor” value (GABAB receptor) was “no ability to compete”, the MCP-1 plasma levels (MCP-1, IL-6 and IL-1a) was “tendency towards a decrease” and the IL-1a plasma levels (MCP-1, IL-6 and IL-1a; vs saline) was “did not significantly affect”. For the same molecule, the IL-6 plasma levels (MCP-1, IL-6 and IL-1a; vs saline) was “significantly lowered”.
